US10596109B2 (Abela Pharmaceuticals, Inc., priority 2009, dated 2020)
Read-outs that look alike come from different tables or passages of the source.

Key:
S. pneumonia [1] = settings: Streptococcus pneumonia, 7 h
S. pneumonia [2] = assay: Bacterial viability by bioluminescent ATP assay, 7 hours culture
S. pyogenes [3] = settings: Streptococcus pyogenes, 18 h
S. pyogenes [4] = assay: Bacterial viability by bioluminescent ATP assay, 18 hours culture; settings: MSM alone at 8%

Compound	S. pneumonia viability (S. pneumonia [1]; 5 %)	S. pneumonia viability (S. pneumonia [1]; 10 %)	Reduction in bacterial viability (S. pneumonia [2]; DMSO 5% alone)	S. pyogenes viability (S. pyogenes [3]; 0.63 %)	S. pyogenes viability (S. pyogenes [3]; 1.25 %)	S. pyogenes viability (S. pyogenes [3]; 10 %)	S. pyogenes viability (S. pyogenes [3]; 20 %)	S. pyogenes viability (S. pyogenes [3]; […])	Reduction in bacterial viability (S. pneumonia [2]; MSM 5% alone)	S. pneumonia viability (S. pneumonia [2]; MSM 10%)	S. pneumonia viability (S. pneumonia [2]; MSM 20%)	Reduction in bacterial viability (estimated) (S. pyogenes [4])
C[S+](C)[O-] [DMSO, Dimethyl sulfoxide]	75.45%	40.18%	approximately 25%	100%	100%	14.50%	5.14%	100%				
CS(C)(=O)=O [MSM, Methylsulfonylmethane]									~5%	48.57%	39.08%	approximately 89%
